{"source": "patent US20070213402A1", "about": "“Compounds which interact with the thyroid hormone receptor for the treatment of fibrotic disease” (priority 1998, published 2007)", "target": "T1, glucocorticoid receptor (Homo sapiens, UniProt P04150)", "T1 construct": "expressed in transfected cells; host or cells: CV1 (transformed African Green Monkey kidney cell line)", "T1 sequence (P04150 1-777)": "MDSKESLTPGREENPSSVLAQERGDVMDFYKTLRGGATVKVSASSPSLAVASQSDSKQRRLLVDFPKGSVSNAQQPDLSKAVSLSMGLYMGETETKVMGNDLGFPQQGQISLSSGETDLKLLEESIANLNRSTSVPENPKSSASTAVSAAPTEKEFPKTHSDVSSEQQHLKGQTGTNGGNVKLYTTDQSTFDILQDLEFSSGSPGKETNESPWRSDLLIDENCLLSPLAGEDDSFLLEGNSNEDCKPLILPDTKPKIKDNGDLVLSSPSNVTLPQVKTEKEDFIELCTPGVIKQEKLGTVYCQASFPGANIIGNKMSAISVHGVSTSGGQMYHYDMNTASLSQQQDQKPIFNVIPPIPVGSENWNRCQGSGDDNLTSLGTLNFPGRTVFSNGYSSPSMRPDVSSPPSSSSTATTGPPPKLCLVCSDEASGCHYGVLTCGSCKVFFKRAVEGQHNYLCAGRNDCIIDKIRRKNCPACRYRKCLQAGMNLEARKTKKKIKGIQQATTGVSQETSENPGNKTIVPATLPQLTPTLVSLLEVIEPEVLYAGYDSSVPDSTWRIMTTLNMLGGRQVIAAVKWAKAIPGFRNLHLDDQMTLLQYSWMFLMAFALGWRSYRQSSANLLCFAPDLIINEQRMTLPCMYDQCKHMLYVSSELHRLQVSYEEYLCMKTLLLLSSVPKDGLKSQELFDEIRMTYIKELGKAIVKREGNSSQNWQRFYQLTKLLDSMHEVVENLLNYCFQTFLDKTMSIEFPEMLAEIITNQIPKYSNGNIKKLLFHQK", "experiment": "Experiment 2: PGL3MMTV-luciferase transactivation in CV1 cells with glucocorticoid receptor (GR1)", "format": "cell-based", "details": "for % control (GR1): Blank = 100", "from_the_text": "Two plasmid constructs were introduced by standard calcium phosphate precipitation of DNA followed by glycerol shock (Ausubel F M, Brent R, Kingston D D, Moore J G et al Current protocols in molecular biology 1994 Greene Publishing Associates/Wiley-Interscience, New York, N.Y.) using a transformed African Green Monkey kidney cell line (CV1) (Schneikert J, Peterziel H, Defossez P-A, Klocker H, de Launoit Y and Cato A C B Androgen receptor-Ets protein interaction is a novel mechanism for steroid hormone-mediated down-modulation of matrix metalloproteinase expression, Journal of Biological Chemistry. Vol 271(39) (pp 23907-23913), 1996).\nThis experiment was intended to investigate the activation of androgen and corticosteroid receptors by compound I.\nCPII was compound II above, clobuzarit, which was used at 10^−7M.", "key": {"[1]": {"details": "CPII 10^-7M together with Dex 10^-7M"}}, "data": [{"molecule": "CC(C)(OCc1ccc(-c2ccc(Cl)cc2)cc1)C(=O)O", "note": "[Compound II, 1-[4-(4-chlorophenyl)benzyloxy]-1-methylpropionic acid]", "values": [{"measurement": "activation of glucocorticoid receptor-driven transcription, in words", "setting": "10^-7M, compared with Dex", "result": "negligible activity"}, {"measurement": "Raw counts (GR1)", "setting": "[1]", "result": 748249, "unit": "counts"}, {"measurement": "% control (GR1)", "setting": "[1]", "result": 20965, "unit": "%"}, {"measurement": "Raw counts (GR1)", "setting": "substance alone at 10^-7M", "result": 3272, "unit": "counts"}, {"measurement": "% control (GR1)", "setting": "substance alone at 10^-7M", "result": 92, "unit": "%"}]}]}
